# Measured values as given in patent publication US10385031B2, “Substituted piperazines as selective HDAC1,2 inhibitors” (Regenacy Pharmaceuticals, LLC, priority 2016, dated 2019).
# Assays:
# [1] = target: HDAC1 (Homo sapiens (Human), UniProt Q13547); test: HDAC enzyme assay HDAC1; type: biochemical
# [2] = target: HDAC2 (Homo sapiens (Human), UniProt Q92769); test: HDAC enzyme assay HDAC2; type: biochemical
# Procedure: Compounds for testing were diluted in DMSO to 50 fold the final concentration and a ten-point three-fold dilution series was made. The compounds were diluted in assay buffer (50 mM HEPES, pH 7.4, 100 mM KCl, 0.001% Tween-20, 0.05% BSA, 20 μM TCEP) to 6-fold their final concentration. The HDAC enzymes (purchased from BPS Biosciences) were diluted to 1.5-fold their final concentration in assay buffer. The tripeptide substrate and trypsin at 0.05 μM final concentration were diluted in assay buffer at 6-fold their final concentration. The final enzyme concentrations used in these assays were 3.3 ng/ml (HDAC1), 0.2 ng/ml (HDAC2) and 0.08 ng/ml (HDAC3). The final substrate concentrations used were 16 μM (HDAC1), 10 μM (HDAC2) and 17 μM (HDAC3).
# Five μl of compounds and 20 μl of enzyme were added to wells of a black, opaque 384 well plate in duplicate. Enzyme and compound were incubated together at room temperature for 10 minutes. Five μl of substrate was added to each well, the plate was shaken for 60 seconds and placed into a Victor 2 microtiter plate reader. The development of fluorescence was monitored for 60 min and the linear rate of the reaction was calculated. The IC50 was determined using Graph Pad Prism by a four parameter curve fit.
# [3] = target: HDAC3 (Homo sapiens (Human), UniProt O15379); test: HDAC enzyme assay HDAC3; type: biochemical
# Procedure: Compounds for testing were diluted in DMSO to 50 fold the final concentration and a ten-point three-fold dilution series was made. The compounds were diluted in assay buffer (50 mM HEPES, pH 7.4, 100 mM KCl, 0.001% Tween-20, 0.05% BSA, 20 μM TCEP) to 6-fold their final concentration. The HDAC enzymes (purchased from BPS Biosciences) were diluted to 1.5-fold their final concentration in assay buffer. The tripeptide substrate and trypsin at 0.05 μM final concentration were diluted in assay buffer at 6-fold their final concentration. The final enzyme concentrations used in these assays were 3.3 ng/ml (HDAC1), 0.2 ng/ml (HDAC2) and 0.08 ng/ml (HDAC3). The final substrate concentrations used were 16 μM (HDAC1), 10 μM (HDAC2) and 17 μM (HDAC3). Five μl of compounds and 20 μl of enzyme were added to wells of a black, opaque 384 well plate in duplicate. Enzyme and compound were incubated together at room temperature for 10 minutes. Five μl of substrate was added to each well, the plate was shaken for 60 seconds and placed into a Victor 2 microtiter plate reader. The development of fluorescence was monitored for 60 min and the linear rate of the reaction was calculated. The IC50 was determined using Graph Pad Prism by a four parameter curve fit. In Table 4 below, letter designations are defined as follows: […]
# [4] = Rat pharmacokinetics, cassette dosing (IV and PO); type: in vivo; conditions: rat, plasma, male SD rats; for bioavailability: 5 mg/kg, oral AUC to IV AUC, dose adjusted; for IV clearance: IV 1 mg/kg; for AUC / Cmax / half-life: PO 5 mg/kg; for half-life: read-out: PO T½ (converted)
# Procedure: Male SD rats were fasted overnight. Compounds of the invention were dissolved in dimethyl acetamide at 10 times the final concentration, then Solutol HS 15 (BASF) was added to a final concentration of 10%. Finally 80% saline was added and vortexed to achieve a clear solution. For the IV dosing three animals were injected via the foot dorsal vein with 1 mg/kg compound. For the PO dosing 5 mg/kg of compound was delivered by oral gavage. Blood was collected via the tail vein into K2EDTA tubes at 5 minutes, 15 minutes, 30 minutes, 1 hour, 2 hours, 4 hours, 8 hours and 24 hours after dosing. The blood was centrifuged at 2000 g for 5 minutes at 4° C. to obtain plasma. The plasma was extracted with acetonitrile and the level of compound was analyzed by LC/MS/MS. The level of compound in plasma was calculated from a standard curve in rat plasma. The IV clearance (L/h/kg) and area under the curve (h*ng/mL) were calculated using WinNonLin software. The dose adjusted area under the curve for the IV and oral dosing were used to calculate the oral bioavailability.
# Pharmacokinetic properties were assessed in a rat cassette dosing experiment. The IV clearance (IV Clr.) is in units of L/hr/kg. The oral maximum plasma concentration (PO Cmax) is in units of ng/ml. The oral plasma half-life (PO T½) is in units of hours. The oral area under the curve (PO AUC) is in units of hours*ng/ml. The fraction absorbed by the oral route (F %) is a percentage of the oral area under the curve to the IV area under the curve, dose adjusted.
# HDAC2, sequence (Q92769 whole entry): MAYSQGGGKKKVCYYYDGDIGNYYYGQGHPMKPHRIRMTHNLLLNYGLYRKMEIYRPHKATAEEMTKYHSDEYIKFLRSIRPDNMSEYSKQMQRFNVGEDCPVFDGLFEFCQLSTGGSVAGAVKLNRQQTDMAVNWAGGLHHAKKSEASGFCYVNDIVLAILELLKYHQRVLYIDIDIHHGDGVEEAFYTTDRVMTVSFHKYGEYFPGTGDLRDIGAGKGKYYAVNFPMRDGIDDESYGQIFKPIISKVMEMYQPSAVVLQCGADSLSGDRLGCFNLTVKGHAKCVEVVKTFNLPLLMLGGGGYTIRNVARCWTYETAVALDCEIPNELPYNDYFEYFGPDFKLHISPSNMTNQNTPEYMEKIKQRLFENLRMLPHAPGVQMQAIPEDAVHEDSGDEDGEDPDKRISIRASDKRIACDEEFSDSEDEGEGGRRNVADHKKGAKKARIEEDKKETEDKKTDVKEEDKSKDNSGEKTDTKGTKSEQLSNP
# HDAC1, sequence (Q13547 whole entry): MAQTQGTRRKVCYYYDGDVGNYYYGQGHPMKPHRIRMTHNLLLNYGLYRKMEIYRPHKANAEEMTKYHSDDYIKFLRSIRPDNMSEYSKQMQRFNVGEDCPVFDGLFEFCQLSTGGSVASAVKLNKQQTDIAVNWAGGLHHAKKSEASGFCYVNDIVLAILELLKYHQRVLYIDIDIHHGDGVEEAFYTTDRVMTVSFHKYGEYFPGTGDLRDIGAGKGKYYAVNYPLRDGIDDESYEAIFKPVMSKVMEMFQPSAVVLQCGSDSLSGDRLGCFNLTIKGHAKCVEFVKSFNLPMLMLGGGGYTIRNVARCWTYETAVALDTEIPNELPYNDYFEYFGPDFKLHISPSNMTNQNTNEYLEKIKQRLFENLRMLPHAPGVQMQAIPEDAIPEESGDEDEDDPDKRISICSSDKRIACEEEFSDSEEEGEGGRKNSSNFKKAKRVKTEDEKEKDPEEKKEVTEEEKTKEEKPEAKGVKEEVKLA
# HDAC3, sequence (O15379 whole entry): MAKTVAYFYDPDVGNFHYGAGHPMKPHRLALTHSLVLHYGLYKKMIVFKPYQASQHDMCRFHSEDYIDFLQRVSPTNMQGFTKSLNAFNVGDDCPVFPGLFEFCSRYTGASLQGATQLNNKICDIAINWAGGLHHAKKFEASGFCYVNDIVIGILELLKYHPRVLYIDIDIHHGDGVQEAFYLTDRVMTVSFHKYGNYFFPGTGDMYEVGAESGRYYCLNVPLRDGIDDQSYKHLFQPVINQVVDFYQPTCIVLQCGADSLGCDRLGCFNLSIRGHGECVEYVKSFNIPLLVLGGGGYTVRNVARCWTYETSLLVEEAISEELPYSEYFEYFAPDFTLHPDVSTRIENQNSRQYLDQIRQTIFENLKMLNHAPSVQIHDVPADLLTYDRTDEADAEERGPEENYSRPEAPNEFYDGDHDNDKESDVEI
# HDAC3, sequence (Q9Y618 395-489 partner): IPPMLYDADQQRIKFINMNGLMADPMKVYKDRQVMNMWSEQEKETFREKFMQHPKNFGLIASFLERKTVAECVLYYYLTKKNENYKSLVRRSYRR
compound,measurement,setting,value
Nc1ccc(-c2ccccc2)cc1NC(=O)c1cnc(N2CCNCC2)s1 [Compound 047],IC50,[1],< 10 nM
same,IC50,[2],10 to 500 nM
same,IC50,[3],> 500 nM
Nc1ccc(-c2ccccc2)cc1NC(=O)c1ccc2nc(N3CCNCC3)ccc2c1 [Compound 002],bioavailability,[4],86.1%
same,IV clearance,[4],2 mL/min/kg
same,AUC,[4],34600 ng·h/mL
same,Cmax,[4],3750 ng/mL
same,half-life,[4],5.9 h
Nc1ccc(-c2ccco2)cc1NC(=O)c1cnc(N2CCNCC2)cn1 [Compound 087],IC50,[1],< 10 nM
same,IC50,[2],10 to 500 nM
same,IC50,[3],10 to 500 nM
Nc1ccc(-c2ccccc2F)cc1NC(=O)c1ccc(N2CCNCC2)nc1 [Compound 076],IC50,[1],< 10 nM
same,IC50,[2],10 to 500 nM
same,IC50,[3],10 to 500 nM
CN1CCN(c2ccc(C(=O)Nc3cc(-c4cccs4)ccc3N)cn2)CC1 [Compound 071],IC50,[2],10 to 500 nM
same,IC50,[3],10 to 500 nM
Nc1ccc(-c2cccs2)cc1NC(=O)c1ccc(N2CCNCC2)cc1 [Compound 012],bioavailability,[4],93.9%
same,IV clearance,[4],8.83 mL/min/kg
same,AUC,[4],8190 ng·h/mL
same,Cmax,[4],534 ng/mL
same,half-life,[4],7.7 h
Nc1ccc(-c2ccccn2)cc1NC(=O)c1cnc(N2CCNCC2)s1 [Compound 044],IC50,[1],10 to 500 nM
same,IC50,[2],10 to 500 nM
same,IC50,[3],> 500 nM
Nc1ccc(-c2ccccc2)cc1NC(=O)c1cnc(N2CCNCC2)o1 [Compound 062],IC50,[1],> 500 nM
same,IC50,[2],> 500 nM
same,IC50,[3],> 500 nM
CN1CCN(c2ccc(C(=O)Nc3cc(-c4ccccc4)ccc3N)nc2)CC1 [Compound 079],IC50,[1],< 10 nM
same,IC50,[2],10 to 500 nM
same,IC50,[3],10 to 500 nM
Nc1ccc(-c2ccco2)cc1NC(=O)c1cnc(N2CCNCC2)s1 [Compound 034],IC50,[1],< 10 nM
same,IC50,[2],10 to 500 nM
same,IC50,[3],10 to 500 nM
Nc1ccc(-c2ccco2)cc1NC(=O)c1ccc(N2CCNCC2)cc1 [Compound 013],bioavailability,[4],105%
same,IV clearance,[4],13 mL/min/kg
same,AUC,[4],5780 ng·h/mL
same,Cmax,[4],425 ng/mL
same,half-life,[4],8.1 h
CN1CCN(c2ccc(C(=O)Nc3cc(-c4cccs4)ccc3N)nc2)CC1 [Compound 080],IC50,[1],< 10 nM
same,IC50,[2],< 10 nM
same,IC50,[3],10 to 500 nM
Nc1ccc(-c2ccccc2)cc1NC(=O)c1cnc(N2CCNCC2)cn1 [Compound 085],IC50,[1],< 10 nM
same,IC50,[2],10 to 500 nM
same,IC50,[3],10 to 500 nM
Nc1ccc(-c2ccncc2)cc1NC(=O)c1ccc(N2CCNCC2)nc1 [Compound 010],bioavailability,[4],12.6%
same,IV clearance,[4],18.3 mL/min/kg
same,AUC,[4],570 ng·h/mL
same,Cmax,[4],164 ng/mL
same,half-life,[4],4.7 h
CN1CCN(c2ccc(C(=O)Nc3cc(-c4ccoc4)ccc3N)nc2)CC1 [Compound 083],IC50,[1],< 10 nM
same,IC50,[2],10 to 500 nM
same,IC50,[3],10 to 500 nM
Nc1ccc(-c2ccc(F)cc2)cc1NC(=O)c1ncc(N2CCNCC2)s1 [Compound 053],IC50,[1],< 10 nM
same,IC50,[2],< 10 nM
same,IC50,[3],10 to 500 nM
CN1CCN(c2ccc(C(=O)Nc3cc(-c4ccco4)ccc3N)cn2)CC1 [Compound 074],IC50,[1],< 10 nM
same,IC50,[2],10 to 500 nM
same,IC50,[3],10 to 500 nM
Nc1ccc(-c2ccoc2)cc1NC(=O)c1cnc(N2CCNCC2)s1 [Compound 046],IC50,[1],< 10 nM
same,IC50,[2],10 to 500 nM
same,IC50,[3],10 to 500 nM
Nc1ccc(-c2ccc(F)cc2)cc1NC(=O)c1cnc(N2CCNCC2)cn1 [Compound 090],IC50,[1],< 10 nM
same,IC50,[2],10 to 500 nM
same,IC50,[3],10 to 500 nM
Nc1ccc(-c2cccs2)cc1NC(=O)c1ccc(N2CCNCC2)s1 [Compound 033],bioavailability,[4],191%
same,IV clearance,[4],10.8 mL/min/kg
same,AUC,[4],10700 ng·h/mL
same,Cmax,[4],614 ng/mL
same,half-life,[4],13.7 h
Cc1nc(C(=O)Nc2cc(-c3ccoc3)ccc2N)sc1N1CCNCC1 [Compound 043],IC50,[1],< 10 nM
same,IC50,[2],10 to 500 nM
same,IC50,[3],> 500 nM
Nc1ccc(-c2ccccc2)cc1NC(=O)c1ccc(N2CCNCC2)s1 [Compound 064],IC50,[1],< 10 nM
same,IC50,[2],10 to 500 nM
same,IC50,[3],10 to 500 nM
Nc1ccc(-c2ccoc2)cc1NC(=O)c1ccc(N2CCNCC2)s1 [Compound 066],IC50,[1],< 10 nM
same,IC50,[2],10 to 500 nM
same,IC50,[3],10 to 500 nM
Nc1ccc(-c2ccco2)cc1NC(=O)c1cnc(N2CCNCC2)o1 [Compound 061],IC50,[1],> 500 nM
same,IC50,[2],> 500 nM
same,IC50,[3],> 500 nM
Nc1ccc(-c2ccoc2)cc1NC(=O)c1cnc(N2CCNCC2)cn1 [Compound 088],IC50,[1],< 10 nM
same,IC50,[2],10 to 500 nM
same,IC50,[3],10 to 500 nM
Nc1ccc(-c2ccc(F)cc2)cc1NC(=O)c1cnc(N2CCNCC2)s1 [Compound 037],IC50,[1],< 10 nM
same,IC50,[2],10 to 500 nM
same,IC50,[3],10 to 500 nM
Nc1ccc(-c2cccs2)cc1NC(=O)c1cnc(N2CCNCC2)o1 [Compound 060],IC50,[1],> 500 nM
same,IC50,[2],> 500 nM
same,IC50,[3],> 500 nM
Nc1ccc(-c2ccc(F)cc2)cc1NC(=O)c1ccc(N2CCNCC2)s1 [Compound 068],IC50,[1],< 10 nM
same,IC50,[2],10 to 500 nM
same,IC50,[3],10 to 500 nM
CN1CCN(c2ncc(C(=O)Nc3cc(-c4ccccc4)ccc3N)s2)CC1 [Compound 048],IC50,[1],< 10 nM
same,IC50,[2],10 to 500 nM
same,IC50,[3],> 500 nM
Nc1ccc(-c2cccs2)cc1NC(=O)c1cnc2cc(N3CCNCC3)ccc2c1 [Compound 023],bioavailability,[4],51.2%
same,IV clearance,[4],6 mL/min/kg
same,AUC,[4],6370 ng·h/mL
same,Cmax,[4],664 ng/mL
same,half-life,[4],8.5 h
CN1CCN(c2cnc(C(=O)Nc3cc(-c4cccs4)ccc3N)cn2)CC1 [Compound 086],IC50,[1],< 10 nM
same,IC50,[2],< 10 nM
same,IC50,[3],10 to 500 nM
Nc1ccc(-c2ccoc2)cc1NC(=O)c1ccc(N2CCNCC2)cc1 [Compound 014],bioavailability,[4],97%
same,IV clearance,[4],11 mL/min/kg
same,AUC,[4],7100 ng·h/mL
same,Cmax,[4],727 ng/mL
same,half-life,[4],4.9 h
Nc1ccc(-c2ccco2)cc1NC(=O)c1ccc(N2CCNCC2)nc1 [Compound 008],bioavailability,[4],100%
same,IV clearance,[4],14.3 mL/min/kg
same,AUC,[4],5540 ng·h/mL
same,Cmax,[4],536 ng/mL
same,half-life,[4],5.6 h
Nc1ccc(-c2cccs2)cc1NC(=O)c1csc(N2CCNCC2)n1 [Compound 059],IC50,[1],> 500 nM
same,IC50,[2],10 to 500 nM
same,IC50,[3],10 to 500 nM
Cc1nc(C(=O)Nc2cc(-c3ccco3)ccc2N)sc1N1CCNCC1 [Compound 042],IC50,[1],< 10 nM
same,IC50,[2],10 to 500 nM
same,IC50,[3],10 to 500 nM
Nc1ccc(-c2cccnc2)cc1NC(=O)c1ccc(N2CCNCC2)nc1 [Compound 072],IC50,[1],10 to 500 nM
same,IC50,[2],10 to 500 nM
same,IC50,[3],10 to 500 nM
Nc1ccc(-c2ccoc2)cc1NC(=O)c1ccc2nc(N3CCNCC3)ccc2c1 [Compound 004],bioavailability,[4],90.8%
same,IV clearance,[4],0.667 mL/min/kg
same,AUC,[4],91900 ng·h/mL
same,Cmax,[4],10400 ng/mL
same,half-life,[4],4.3 h
Nc1ccc(-c2ccco2)cc1NC(=O)c1cnc2cc(N3CCNCC3)ccc2c1 [Compound 024],bioavailability,[4],36.3%
same,IV clearance,[4],3.5 mL/min/kg
same,AUC,[4],8220 ng·h/mL
same,Cmax,[4],1000 ng/mL
same,half-life,[4],4.4 h
Nc1ccc(-c2ccccc2)cc1NC(=O)c1ncc(N2CCNCC2)s1 [Compound 049],IC50,[2],10 to 500 nM
same,IC50,[3],10 to 500 nM
